# Laboratory results as given in US20110311517A1, “Antibodies and methods for treating estrogen receptor-associated diseases” (SHENOGEN PHARMA GROUP, LTD., priority 2009, published 2011).
# Test system: implanted tumors
# Experiment: Comparison of anti-tumor activity of ScFv-7 with tamoxifen on tumor-bearing nude mice
# Assay type: in vivo, BALB/c-nu female nude mice
# Conditions: after 18 days of drug administration
# Description: BALB/c-nu female nude mice were divided into 3 groups, with 7 mice in each group.
# Human anti-ERα36 ScFv-7 was administered at the dose of 0.1 mg/20 g body weight/day. The positive control tamoxifen was administered at the dose of 0.33 mg/20 g body weight/day. The negative control group was administered with human IgG.
# The tumor-bearing nude mice were weighed, and the volumes of the implanted tumors were measured every 3-4 days. The relative tumor volumes and tumor growth inhibition rates were calculated using Equation 2 and Equation 4 respectively. Animals received drug administration for 18 days and were terminated 24 h later. The tumors were excised from the animals and weighed. The average tumor weights and tumor growth inhibitions were calculated using Equation 4.
structure (smiles),measurement,setting,value
"CC/C(=C(\c1ccccc1)c1ccc(OCCN(C)C)cc1)c1ccccc1 [tamoxifen, reference compound]",tumor inhibition rates,"ScFv-7 0.1 mg/20 g body weight/day, tamoxifen 0.33 mg/20 g body weight/day",around 60%
same,average tumor weights compared with negative group,p-values below 0.01,significant difference
